Data published in patent US4665074A, “6-(polyfluoroalkoxyphenyl) pyridazinones, their compositions, synthesis and use” (Byk Gulden Lomberg Chemische Fabrik GmbH, priority 1984, dated 1987).

Key:
[1] = test system: electrically-stimulated left atrium of the rat; assay: Positive inotropic action in vitro on electrically-stimulated left atrium; format: cell-based; conditions: for -lg(EC40pot.) left atrium / EC40: EC40pot. in mol/l, 40% increase in contraction force vs initial value, 31°; for (EC40pot.)theophylline /(EC40pot.)substance: activity on left atrium relative to theophylline; for EC40: Rattus norvegicus, read-out: -lg(EC40pot.) left atrium (converted)
Protocol: Testing the positive inotropic action of the compounds in vitro on the electrically-stimulated left atrium of the rat is effected as follows:
Isometric contractions (HSE force sensor K-30; Watanabe recorder, Linear Corder Mark 5) of isolated left atria of rats (.male., 250-300 g) in an organ bath (10 ml, Tyrode nutrient solution, 31°, gassing with carbogen, initial tension of the organs 0.25 g) with electric stimulation (HSE stimulator, 7 V, 3 ms, 2 Hz) are recorded. After an equilibration period of 30 minutes, a dose-dependent increase in the contraction force is brought about by administration of the test substance in concentrations which increase semilogarithmically and cumulatively (for example 1×10^-6 +2×10^-6 +7×10^-6 +2×10^-5etc. mol/l), a constant inotropic response being waited for after each individual dose of the test substance before the next higher concentration is administered. The particular increase in the contraction force is expressed as a % of the initial value before administration of the substance. The concentration of the test substance which potentiates the contraction force of the atrium by 40% compared with the initial value (EC40pot.mol/l), expressed by the negative logarithm of (EC40pot.mol/l): -1 g(EC40pot.), serves as a measure of the cardiotonic activity.
(§1) The measure used for the organ-selective activity is the ratio between (EC40pot.) left atrium and (EC50)trachea. As a measure of the activity, the ratios between (EC50)trachea values and (EC40pot.)left atrium values of theophylline and the tested compound are given.

[2] = test system: acetylcholine-induced bronchospasm; assay: Protective action against acetylcholine-induced bronchospasm in conscious guinea pigs; format: in vivo, guinea pig; conditions: 100 μmol/kg p.o.; test 30 min after application; acetylcholine mist 0.06%
Protocol: Guinea pigs (250-350 g) in a closed Plexiglas cylinder (volume: 5 l) are exposed to a mist of acetylcholine (0.06% in 0.9% sodium chloride solution; Heyer Use 77 ultrasonic atomizer) twice at an interval of 20 minutes. The time from the start of atomization until there is onset of a marked struggle to breathe (in certain circumstances, a hypoxic convulsion in the lateral position) is measured and designated the latency perid. […] The test substance is administered orally by gavage (standard dose 100 μmol/kg, volume 1 ml of 4% strength methocel suspension in 0.9% strength sodium chloride solution/kg). After 30 minutes, the animals are again exposed to the mist of acetylcholine, and the latency periods are measured. A prolongation of the latency period to […] is regarded as a protective action.

[3] = test system: isolated, spontaneously contracted chain of tracheal rings of the guinea pig; assay: Bronchospasmolytic action in vitro on chain of tracheal rings (relaxation of spontaneous tonic contraction); format: cell-based; conditions: for -lg(EC50) trachea / EC50: EC50 in mol/l, 50% of maximum relaxation achieved by (-)isoprenaline 10^-6 mol/l, 37°; for (EC50)theophylline / (EC50)substance: activity on trachea relative to theophylline; for (EC40pot.) left atrium / (EC50)trachea: organ-selectivity ratio, rat left atrium vs guinea pig trachea; for EC50: Cavia porcellus, read-out: -lg(EC50) trachea (converted)
Protocol: To test the bronchospasmolytic action of the compounds in vitro on a chain of tracheal rings of the guinea pig, such tracheal rings are subjected to the following procedure:
Four parallel chains of tracheal rings (each consisting of 6 individual rings) of guinea pigs (.male. and .female., 430-600 g) in an organ bath [5 ml, Krebs-Henseleit solution with added phentolamine (10^-5 mol/l), 37°, initial tension of the organs 2 g, gassing with carbogen] develop a stable, spontaneous tonic contraction after about 20 to 30 minutes. […] Over a period of from 20 to 30 minutes, a complete dose/action curve of the test substance is thus obtained. The particular relaxation is expressed as a percentage fraction of the maximum relaxation achieved by administration of (-)isoprenaline (10^-6 mol/l).
as §1

| Compound | -lg(EC40pot.) left atrium [1] | (EC40pot.)theophylline /(EC40pot.)substance [1] | Tripling of the latency period in N of 10 animals [2] | -lg(EC50) trachea [3] | (EC50)theophylline / (EC50)substance [3] | (EC40pot.) left atrium / (EC50)trachea [3] | -lg(EC40pot.) left atrium ([1]; listed as 2) | (EC40pot.)theophylline /(EC40pot.)substance ([1]; listed as 2) | -lg(EC50) trachea ([3]; listed as 2) | (EC50)theophylline / (EC50)substance ([3]; listed as 2) | (EC40pot.) left atrium / (EC50)trachea ([3]; listed as 2) | EC40 [1] [µM] | EC50 [3] [µM] |
| --- | --- | --- | --- | --- | --- | --- | --- | --- | --- | --- | --- | --- | --- |
| 6-(4-difluoromethoxy-3-methoxyphenyl)-3[2H]pyridazinone [Serial No. 5] | 5.76 | 240 | 7 of 10 animals | 5.80 | 85 | 1.1 | – | – | – | – | – | – | – |
| O=c1ccc(-c2ccc(OC(F)(F)F)cc2)n[nH]1 [Serial No. 1, 6-(4-trifluoromethoxyphenyl)-3[2H]pyridazinone] | 4.0 | 4.2 | – | 4.60 | 5.4 | 4.0 | 4.66 | 19 | 5.11 | 17.4 | 2.8 | – | – |
| O=c1ccc(-c2cccc(OC(F)(F)C(F)F)c2)n[nH]1 [Serial No. 2, 6-[3-(1,1,2,2-tetrafluoroethoxy)phenyl]-3[2H]pyridazinone] | – | – | 8 of 10 animals | – | – | – | – | – | – | – | – | – | – |
| O=c1ccc(-c2ccc(OC(F)(F)C(F)F)cc2)n[nH]1 [Serial No. 3, 6-[4-(1,1,2,2-tetrafluoroethoxy)phenyl]-3[2H]pyridazinone] | – | 6.8 | – | – | 13.2 | 6.8 | – | – | – | – | – | 61.7 | 9.12 |
| Cn1c(=O)c2[nH]cnc2n(C)c1=O [Theophylline, theophylline, reference compound] | – | – | 3 of 10 animals | – | – | 3.1 | – | – | – | – | – | 417 | 135 |
| COc1cc(-c2ccc(=O)[nH]n2)ccc1OC(F)F [compound 5] | – | 469 | 9 of 10 animals | – | 110 | 0.7 | – | – | – | – | – | 0.871 | 1.23 |
| O=c1ccc(-c2ccc(OC(F)F)cc2)n[nH]1 [compound 6] | – | 12.9 | 8 of 10 animals | – | 11.2 | 2.7 | – | – | – | – | – | 32.4 | 12 |
| O=c1ccc(-c2cccc(OC(F)F)c2)n[nH]1 [compound 7] | – | – | 9 of 10 animals | – | 9.3 | > 6.9 | – | – | – | – | – | > 100 | 14.5 |
